Assay results published in patent US6054435A, “6-O-substituted macrolides having antibacterial activity” (priority 1999, dated 2000).
Converted amounts (≈) assume the structure as drawn.

Key:
Assay in all cases: in vitro antibacterial activity (MIC), agar dilution
Assay type in all cases: cell-based
Candida albicans CCH 442 = conditions: organism code TT; BHI agar, 35-37° C., 20 to 24 hours; unit assumed
Method: (§1) Representative compounds of the present invention were assayed in vitro for antibacterial activity as follows: Twelve petri dishes containing successive aqueous dilutions of the test compound mixed with 10 mL of sterilized Brain Heart Infusion (BHI) agar (Difco 0418-01-5) were prepared. Each plate was inoculated with 1:100 (or 1:10 for slow-growing strains, such as Micrococcus and Streptococcus) dilutions of up to 32 different microorganisms, using a Steers replicator block. […] In addition, a control plate, using BHI agar containing no test compound, was prepared and incubated at the beginning and end of each test.
(§2) An additional plate containing a compound having known susceptibility patterns for the organisms being tested and belonging to the same antibiotic class as the test compound was also prepared and incubated as a further control, as well as to provide test-to-test comparability.
(§3) After incubation, each plate was visually inspected. The minimum inhibitory concentration (MIC) was defined as the lowest concentration of drug yielding no growth, a slight haze, or sparsely isolated colonies on the inoculum spot as compared to the growth control.

[1] = test system: Enterococcus faecium ATCC 8043; conditions: organism code II; BHI agar, 35-37° C., 20 to 24 hours; unit assumed
Method: as §1, §2, §3

Escherichia coli DC-2 = conditions: organism code SS; BHI agar, 35-37° C., 20 to 24 hours; unit assumed
Method: as §1, §2, §3

Escherichia coli JUHL = conditions: organism code QQ; BHI agar, 35-37° C., 20 to 24 hours; unit assumed
Method: as §1, §2, §3

Escherichia coli SS = conditions: organism code RR; BHI agar, 35-37° C., 20 to 24 hours; unit assumed
Method: as §1, §2, §3

[2] = test system: Haemophilis Influenzae DILL AMP R; conditions: organism code WW; BHI agar, 35-37° C., 20 to 24 hours; unit assumed
Method: as §1, §2, §3

[3] = test system: Micrococcus luteus ATCC 4698; conditions: organism code PP; BHI agar, 35-37° C., 20 to 24 hours; unit assumed
Method: as §1, §2, §3

[4] = test system: Micrococcus luteus ATCC 9341; conditions: organism code OO; BHI agar, 35-37° C., 20 to 24 hours; unit assumed
Method: as §1, §2, §3

[5] = test system: Mycobacterium smegmatis ATCC 114; conditions: organism code UU; BHI agar, 35-37° C., 20 to 24 hours; unit assumed
Method: as §1, §2, §3

[6] = test system: Nocardia Asteroides ATCC9970; conditions: organism code VV; BHI agar, 35-37° C., 20 to 24 hours; unit assumed
Method: as §1, §2, §3

[7] = test system: Staphylococcus aureus 1775; conditions: organism code GG; BHI agar, 35-37° C., 20 to 24 hours; unit assumed
Method: as §1, §2, §3

[8] = test system: Staphylococcus aureus A-5278; conditions: organism code CC; BHI agar, 35-37° C., 20 to 24 hours; unit assumed
Method: as §1, §2, §3

[9] = test system: Staphylococcus aureus A5177; conditions: organism code BB; BHI agar, 35-37° C., 20 to 24 hours; unit assumed
Method: as §1, §2, §3

[10] = test system: Staphylococcus aureus ATCC 6538P; conditions: organism code AA; BHI agar, 35-37° C., 20 to 24 hours; unit assumed
Method: as §1, §2, §3

[11] = test system: Staphylococcus aureus CMX 553; conditions: organism code FF; BHI agar, 35-37° C., 20 to 24 hours; unit assumed
Method: as §1, §2, §3

[12] = test system: Staphylococcus aureus CMX 642A; conditions: organism code DD; BHI agar, 35-37° C., 20 to 24 hours; unit assumed
Method: as §1, §2, §3

[13] = test system: Staphylococcus aureus NCTC10649M; conditions: organism code EE; BHI agar, 35-37° C., 20 to 24 hours; unit assumed
Method: as §1, §2, §3

[14] = test system: Staphylococcus epidermidis 3519; conditions: organism code HH; BHI agar, 35-37° C., 20 to 24 hours; unit assumed
Method: as §1, §2, §3

[15] = test system: Streptococcus Pneumonia 5649; conditions: organism code ZZA; BHI agar, 35-37° C., 20 to 24 hours; unit assumed
Method: as §1, §2, §3

[16] = test system: Streptococcus Pneumonia 5979; conditions: organism code ZZ; BHI agar, 35-37° C., 20 to 24 hours; unit assumed
Method: as §1, §2, §3

[17] = test system: Streptococcus Pneumonia ATCC6303; conditions: organism code XX; BHI agar, 35-37° C., 20 to 24 hours; unit assumed
Method: as §1, §2, §3

[18] = test system: Streptococcus Pneumonia GYR 1171; conditions: organism code YY; BHI agar, 35-37° C., 20 to 24 hours; unit assumed
Method: as §1, §2, §3

[19] = test system: Streptococcus agalactiae CMX 508; conditions: organism code KK; BHI agar, 35-37° C., 20 to 24 hours; unit assumed
Method: as §1, §2, §3

[20] = test system: Streptococcus bovis A-5169; conditions: organism code JJ; BHI agar, 35-37° C., 20 to 24 hours; unit assumed
Method: as §1, §2, §3

[21] = test system: Streptococcus pyogenes 930; conditions: organism code MM; BHI agar, 35-37° C., 20 to 24 hours; unit assumed
Method: as §1, §2, §3

[22] = test system: Streptococcus pyogenes EES61; conditions: organism code LL; BHI agar, 35-37° C., 20 to 24 hours; unit assumed
Method: as §1, §2, §3

[23] = test system: Streptococcus pyogenes PIU 2548; conditions: organism code NN; BHI agar, 35-37° C., 20 to 24 hours; unit assumed
Method: as §1, §2, §3

Compound | MIC (Candida albicans CCH 442) [µg/mL] | MIC [1] [µg/mL] | MIC (Escherichia coli DC-2) [µg/mL] | MIC (Escherichia coli JUHL) [µg/mL] | MIC (Escherichia coli SS) [µg/mL] | MIC [2] [µg/mL] | MIC [3] [µg/mL] | MIC [4] [µg/mL] | MIC [5] [µg/mL] | MIC [6] [µg/mL] | MIC [7] [µg/mL] | MIC [8] [µg/mL] | MIC [9] [µg/mL] | MIC [10] [µg/mL] | MIC [11] [µg/mL] | MIC [12] [µg/mL] | MIC [13] [µg/mL] | MIC [14] [µg/mL] | MIC [15] [µg/mL] | MIC [16] [µg/mL] | further results
CC[C@H]1OC(=O)[C@H](C)C(=O)[C@H](C)[C@@H](O[C@@H]2O[C@H](C)C[C@H](N(C)C)[C@H]2O)[C@](C)(OCC#Cc2ccc(-c3cncnc3)s2)C[C@@H](C)C(=O)[C@H](C)[C@H]2NC(=O)O[C@@]21C [Example 4] | > 100 | 0.02 (≈ 0.0251 µM) | 50 (≈ 62.7 µM) | 50 (≈ 62.7 µM) | 0.39 (≈ 0.489 µM) | 2 (≈ 2.51 µM) | 0.05 (≈ 0.0627 µM) | 0.01 (≈ 0.0125 µM) | 0.78 (≈ 0.979 µM) | 0.02 (≈ 0.0251 µM) | > 100 | > 100 | 0.1 (≈ 0.125 µM) | 0.1 (≈ 0.125 µM) | 0.1 (≈ 0.125 µM) | 0.1 (≈ 0.125 µM) | 0.1 (≈ 0.125 µM) | 0.1 (≈ 0.125 µM) | 0.5 (≈ 0.627 µM) | 2 (≈ 2.51 µM) | MIC [17]: 30 ng/mL (≈ 0.0376 µM); MIC [18]: 0.03 µg/mL (≈ 0.0376 µM); MIC [19]: 0.01 µg/mL (≈ 0.0125 µM); MIC [20]: ≤ 5 ng/mL; MIC [21]: 12.5 µg/mL (≈ 15.7 µM); MIC [22]: 0.01 µg/mL (≈ 0.0125 µM); MIC [23]: 0.1 µg/mL (≈ 0.125 µM)
CC[C@H]1OC(=O)[C@H](C)C(=O)[C@H](C)[C@@H](O[C@@H]2O[C@H](C)C[C@H](N(C)C)[C@H]2O)[C@](C)(OC/C=C/c2ccc(-c3ccco3)s2)C[C@@H](C)C(=O)[C@H](C)[C@H]2NC(=O)O[C@@]21C [Example 77] | > 100 | 0.05 (≈ 0.0635 µM) | 50 (≈ 63.5 µM) | 50 (≈ 63.5 µM) | 0.39 (≈ 0.496 µM) | 8 (≈ 10.2 µM) | 0.2 (≈ 0.254 µM) | 0.02 (≈ 0.0254 µM) | 0.78 (≈ 0.991 µM) | 0.2 (≈ 0.254 µM) | 100 (≈ 127 µM) | 100 (≈ 127 µM) | 0.1 (≈ 0.127 µM) | 0.1 (≈ 0.127 µM) | 0.1 (≈ 0.127 µM) | 0.1 (≈ 0.127 µM) | 0.1 (≈ 0.127 µM) | 0.1 (≈ 0.127 µM) | 0.25 (≈ 0.318 µM) | 16 (≈ 20.3 µM) | MIC [17]: ≤ 4 ng/mL; MIC [18]: ≤ 0.004 µg/mL; MIC [19]: 0.02 µg/mL (≈ 0.0254 µM); MIC [20]: 10 ng/mL (≈ 0.0127 µM); MIC [21]: 12.5 µg/mL (≈ 15.9 µM); MIC [22]: 0.05 µg/mL (≈ 0.0635 µM); MIC [23]: 0.2 µg/mL (≈ 0.254 µM)
CC[C@H]1OC(=O)[C@H](C)C(=O)[C@H](C)[C@@H](O[C@@H]2O[C@H](C)C[C@H](N(C)C)[C@H]2O)[C@](C)(OC/C=C/c2nc(-c3cccnc3)cs2)C[C@@H](C)C(=O)[C@H](C)[C@H]2NC(=O)O[C@@]21C [Example 65] | > 100 | 0.02 (≈ 0.025 µM) | 25 (≈ 31.3 µM) | 100 (≈ 125 µM) | 0.2 (≈ 0.25 µM) | 2 (≈ 2.5 µM) | 0.1 (≈ 0.125 µM) | 0.02 (≈ 0.025 µM) | 0.78 (≈ 0.976 µM) | 0.02 (≈ 0.025 µM) | > 100 | > 100 | 0.1 (≈ 0.125 µM) | 0.1 (≈ 0.125 µM) | 0.1 (≈ 0.125 µM) | 0.1 (≈ 0.125 µM) | 0.1 (≈ 0.125 µM) | 0.1 (≈ 0.125 µM) | 0.25 (≈ 0.313 µM) | > 128 | MIC [17]: 8 ng/mL (≈ 0.01 µM); MIC [18]: ≤ 0.004 µg/mL; MIC [19]: 0.01 µg/mL (≈ 0.0125 µM); MIC [20]: ≤ 5 ng/mL; MIC [21]: 50 µg/mL (≈ 62.6 µM); MIC [22]: 0.01 µg/mL (≈ 0.0125 µM); MIC [23]: 0.1 µg/mL (≈ 0.125 µM)
